From paper PMC4563141, “Reverse Engineering of Vaccine Antigens Using High Throughput Sequencing-enhanced mRNA Display” (EBioMedicine, 2015)
Peptide text beside a SMILES is read from it.

Columns and labels:
[1] = system: mAb41 Fab; assay: Affinity measurements by Octet (binding kinetics of mAb41 Fab to biotinylated peptides); design: species or system mice; conditions: Octet RED, 1:1 model fit
Procedure: Binding kinetics of mAb41 Fab to selected peptides were measured using a Fortebio Octet Red 96 instrument (Menlo Park, CA). All assays were performed in 1 × kinetic buffer (Fortebio). Biotinylated peptides were loaded onto streptavidin biosensors (Fortebio) for 100 s and quenched with biocytin. A two-fold dilution series of antibody Fab (prepared using a mouse IgG1 kit, Pierce) was used as analyte. Association was performed for 300 s and dissociation for 900 s. Binding constants were obtained by fitting sensorgrams with a 1:1 model using ForteBio Data Analysis Software.

[2] = system: mAb41; assay: Competitive ELISA for binding of mAb41 to immobilized peptide B; design: species or system mice; conditions: 1 μg biotinylated pB immobilized, 12 ng mAb41, competitor peptide 0 to 0.8 μg
Procedure: Streptavidin coated 96-well ELISA plates were coated with 1 μg/well biotinylated peptide B as previously described ([Major et al., 1999]). Equal amounts of mAb (12 ng in 100 μl PBS containing 5% milk) were added to each well with increasing amounts of competitor peptide (from 0 to 0.8 μg). After 1 hr incubation at room temperature and washing, secondary antibody was added. The substrate reaction and absorbance reading were performed as described above.

CSCC[C@H](NC(=O)[C@@H](N)CCSC)C(=O)N[C@@H](CCC(=O)O)C(=O)N[C@@H](CS)C(=O)N[C@@H](CCC(=O)O)C(=O)N[C@@H](CCCCN)C(=O)NCC(=O)N[C@@H](CCCCN)C(=O)N[C@@H](Cc1ccc(O)cc1)C(=O)N[C@H](C(=O)N[C@@H](CCC(N)=O)C(=O)NCC(=O)N[C@@H](Cc1c[nH]c2ccccc12)C(=O)N[C@@H](CC(C)C)C(=O)N[C@@H](CS)C(=O)N[C@@H](Cc1c[nH]cn1)C(=O)N[C@@H](CC(C)C)C(=O)N[C@@H](Cc1ccccc1)C(=O)N[C@@H](Cc1c[nH]c2ccccc12)C(=O)N[C@@H](CCC(=O)O)C(=O)N[C@@H](CC(=O)O)C(=O)N[C@@H](CS)C(=O)N[C@@H](CCC(N)=O)C(=O)N[C@@H](CC(=O)O)C(=O)N[C@@H](CCCNC(=N)N)C(=O)NCC(=O)N[C@@H](Cc1c[nH]c2ccccc12)C(=O)N[C@@H](CC(C)C)C(=O)N[C@@H](CCC(=O)O)C(=O)N[C@@H](CCC(N)=O)C(=O)N[C@@H](CC(C)C)C(=O)N[C@@H](CCCNC(=N)N)C(=O)N[C@@H](CC(N)=O)C(=O)N[C@@H](CO)C(=O)N[C@@H](CS)C(=O)N[C@@H](C)C(=O)O)C(C)C [p41_1] (H-MMECEKGKYVQGWLCHLFWEDCQDRGWLEQLRNSCA-OH; N-terminus and C-terminus assumed)
kon ([1]; association 300 s): 14400 M⁻¹ s⁻¹ | Kd ([1]; biotinylated peptide on streptavidin biosensor, mAb41 Fab 125 nM to 7.8 nM 2-fold series): 16.7 nM | kdis ([1]; dissociation 900 s): 0.000241 s⁻¹ | competition with wild type pB for binding to mAb41 [2]: inhibited binding of mAb41 to immobilized pB
